Reference: ChEMBL document CHEMBL3588775, “Synthesis and pharmacological evaluation of N-benzyl substituted 4-bromo-2,5-dimethoxyphenethylamines as 5-HT2A/2C partial agonists” (Bioorg Med Chem, 2015)

What was measured:
[1] = target: T1, 5-hydroxytryptamine receptor 2A (Homo sapiens, UniProt P28223); assay: Binding affinity to 5-HT2A receptor (unknown origin) by PDSP assay
[2] = target: T2, 5-hydroxytryptamine receptor 2C (Homo sapiens, UniProt P28335); assay: Binding affinity to 5-HT2C receptor (unknown origin) by PDSP assay
T2 sequence (P28335 whole entry): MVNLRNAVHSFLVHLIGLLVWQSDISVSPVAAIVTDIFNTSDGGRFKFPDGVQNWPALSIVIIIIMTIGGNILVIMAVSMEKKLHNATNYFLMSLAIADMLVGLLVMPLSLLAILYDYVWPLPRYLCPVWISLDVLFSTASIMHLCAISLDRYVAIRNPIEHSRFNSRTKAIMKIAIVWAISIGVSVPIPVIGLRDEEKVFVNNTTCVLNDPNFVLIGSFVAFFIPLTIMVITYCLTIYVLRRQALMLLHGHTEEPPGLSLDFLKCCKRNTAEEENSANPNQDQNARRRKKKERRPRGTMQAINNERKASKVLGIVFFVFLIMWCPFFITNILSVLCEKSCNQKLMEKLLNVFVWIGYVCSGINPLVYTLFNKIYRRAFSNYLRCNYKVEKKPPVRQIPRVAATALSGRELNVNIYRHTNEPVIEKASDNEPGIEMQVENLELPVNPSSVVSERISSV

[3] = target: T3, Serotonin 2 receptors; 5-HT2a & 5-HT2c (Homo sapiens) (UniProt P28223+P28335); assay: Selectivity for 5-HT2A receptor (unknown origin) over 5-HT2C receptor (unknown origin) by PDSP assay
T3 sequence (P28223 whole entry, looked up, one chain of several): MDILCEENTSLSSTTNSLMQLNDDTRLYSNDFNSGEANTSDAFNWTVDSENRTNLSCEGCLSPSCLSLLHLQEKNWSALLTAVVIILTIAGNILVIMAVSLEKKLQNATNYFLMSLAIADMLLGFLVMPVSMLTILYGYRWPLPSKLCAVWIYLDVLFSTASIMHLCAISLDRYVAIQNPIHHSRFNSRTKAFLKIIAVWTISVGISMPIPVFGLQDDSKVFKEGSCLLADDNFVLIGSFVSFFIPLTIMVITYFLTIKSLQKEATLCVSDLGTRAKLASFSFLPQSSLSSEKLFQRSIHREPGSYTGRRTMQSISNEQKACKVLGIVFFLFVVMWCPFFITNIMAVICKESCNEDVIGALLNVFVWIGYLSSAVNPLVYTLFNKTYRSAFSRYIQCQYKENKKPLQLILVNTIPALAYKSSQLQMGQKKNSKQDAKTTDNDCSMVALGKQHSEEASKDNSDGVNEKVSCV

[4] = target: T2, 5-hydroxytryptamine receptor 2C; assay: Partial agonist activity at human 5-HT2C receptor expressed in HEK293 cells preincubated for 1 hr at 37 degC followed by incubated for 15 mins at room temperature by IP-One assay; type: cell-based
[5] = target: T3, Serotonin 2 receptors; 5-HT2a & 5-HT2c (Homo sapiens); assay: Selectivity for human 5-HT2A receptor over human 5-HT2C receptor by IP-One assay
[6] = target: T1, 5-hydroxytryptamine receptor 2A; assay: Partial agonist activity at human 5-HT2A receptor expressed in HEK293 cells preincubated for 1 hr at 37 degC followed by incubated for 15 mins at room temperature by IP-One assay relative to 5-HT; type: cell-based
[7] = target: T4, 5-hydroxytryptamine receptor 2C (Homo sapiens) (UniProt P28335); assay: Partial agonist activity at human 5-HT2C receptor expressed in HEK293 cells preincubated for 1 hr at 37 degC followed by incubated for 15 mins at room temperature by IP-One assay relative to 5-HT; type: cell-based
T4 sequence (whole entry): T2 sequence (P28335 whole entry)

[8] = target: T1, 5-hydroxytryptamine receptor 2A
[9] = Selectivity for human 5-HT2A receptor over rat 5-HT2C receptor by PDSP assay
[10] = target: T1, 5-hydroxytryptamine receptor 2A; assay: Partial agonist activity at human 5-HT2A receptor expressed in human tsA201 cells after 30 mins by inositol phosphate turnover assay; type: functional, cell-based
[11] = target: T2, 5-hydroxytryptamine receptor 2C; assay: Partial agonist activity at human 5-HT2C receptor expressed in human tsA201 cells after 30 mins by inositol phosphate turnover assay; type: functional, cell-based
[12] = target: T3, Serotonin 2 receptors; 5-HT2a & 5-HT2c (Homo sapiens); assay: Selectivity for human 5-HT2A receptor over human 5-HT2C receptor by inositol phosphate turnover assay; type: functional
[13] = target: T1, 5-hydroxytryptamine receptor 2A; assay: Partial agonist activity at human 5-HT2A receptor expressed in human tsA201 cells after 30 mins by inositol phosphate turnover assay relative to 5-HT; type: functional, cell-based
[14] = target: T4, 5-hydroxytryptamine receptor 2C (Homo sapiens); assay: Partial agonist activity at human 5-HT2C receptor expressed in human tsA201 cells after 30 mins by inositol phosphate turnover assay relative to 5-HT; type: functional, cell-based
[15] = target: T1, 5-hydroxytryptamine receptor 2A; assay: Displacement of [3H]-Ketanserin from human 5-HT2A receptor by PDSP assay
[16] = target: T5, 5-hydroxytryptamine receptor 2C (Rattus norvegicus, UniProt P08909); assay: Displacement of [3H]-Mesulergine from rat 5-HT2C receptor by PDSP assay
T5 sequence (P08909 whole entry): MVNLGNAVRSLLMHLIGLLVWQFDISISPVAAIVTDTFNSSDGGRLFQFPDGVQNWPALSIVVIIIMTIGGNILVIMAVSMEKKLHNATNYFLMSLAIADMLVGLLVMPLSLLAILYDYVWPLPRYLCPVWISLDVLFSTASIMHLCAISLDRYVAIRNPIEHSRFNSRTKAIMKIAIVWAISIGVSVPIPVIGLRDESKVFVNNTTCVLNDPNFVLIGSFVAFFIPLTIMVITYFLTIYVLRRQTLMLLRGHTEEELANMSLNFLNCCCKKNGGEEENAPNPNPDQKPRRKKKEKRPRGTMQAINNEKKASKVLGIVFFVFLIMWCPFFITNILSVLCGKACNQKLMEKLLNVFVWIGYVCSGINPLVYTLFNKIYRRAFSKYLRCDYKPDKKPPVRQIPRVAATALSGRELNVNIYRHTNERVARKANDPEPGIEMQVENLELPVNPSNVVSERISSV

T1 sequence (P28223 whole entry): as the sequence (P28223 whole entry, looked up, one chain of several) above

SMILES | Ki [1] | Ki [2] | Selectivity ratio [3] | also measured
COc1cc(CCNCc2cccc(O)c2)c(OC)cc1Br | 1.35 nM | 20.9 nM | 16 | –
COc1cc(CCNCc2cccc(OC)c2O)c(OC)cc1Br | 0.2 nM | 6.31 nM | 32 | EC50 [4]: 15500 nM; Selectivity ratio [5]: 457; Emax [6]: 21%; Emax [7]: 52%; EC50 [8]: 33.9 nM
COc1cc(CCNCc2cccc(OC)c2OC)c(OC)cc1Br | 3.09 nM | 23.4 nM | 7.5 | –
COc1cc(CCNCc2cccc3ccsc23)c(OC)cc1Br | 1.7 nM | 7.76 nM | 4.5 | –
COc1cccc(CNCCc2cc(OC)c(Br)cc2OC)c1 | 0.437 nM | 4.68 nM | 11 | –
COc1cc(CC(C)N)c(OC)cc1I (configuration not stated) | – | – | – | EC50 [4]: 45.7 nM; Emax [6]: 87%; Emax [7]: 119%
COc1cc(CCNCc2cccc3ccoc23)c(OC)cc1Br | 0.603 nM | 2.51 nM | 4.2 | –
COc1cc(CCNCc2cccnc2)c(OC)cc1Br | 83.2 nM | 120 nM | 1.4 | –
COc1cc(CCNCc2ccccn2)c(OC)cc1Br | 38.9 nM | 41.7 nM | 1.1 | –
COc1cc(CCNCc2cccc3cn[nH]c23)c(OC)cc1Br | 12 nM | 24 nM | 2 | –
COc1cc(CCNCc2c(OC)cccc2OC)c(OC)cc1Br | 316 nM | 17.4 nM | 0.06 | EC50 [4]: 87100 nM; Selectivity ratio [5]: 16; Emax [6]: 53%; Emax [7]: 33%; EC50 [8]: 5370 nM
COc1cc(CCNCc2cccc3c2OCC3)c(OC)cc1Br | 0.2 nM | 3.39 nM | 17 | EC50 [4]: 32.4 nM; Selectivity ratio [5]: 7.1; Emax [6]: 33%; Emax [7]: 52%; EC50 [8]: 4.57 nM
COc1cc(CCNCc2ccc[nH]c2=O)c(OC)cc1Br | 123 nM | 120 nM | 1 | –
COc1cc(CCNCc2cccc3cc[nH]c23)c(OC)cc1Br | 12.9 nM | 66.1 nM | 5.1 | –
COc1cc(CCNCc2cccc(OC)c2F)c(OC)cc1Br | 3.31 nM | 56.2 nM | 17 | EC50 [4]: 282 nM; Selectivity ratio [5]: 2.7; Emax [6]: 22%; Emax [7]: 16%; EC50 [8]: 105 nM
COc1ccc(OC)c(CNCCc2cc(OC)c(Br)cc2OC)c1 | 30.9 nM | 77.6 nM | 2.5 | –
COc1cc(CCNCc2cccnc2OC)c(OC)cc1Br | 79.4 nM | 70.8 nM | 0.9 | –
COc1cc(CCNCc2cccc3nc[nH]c23)c(OC)cc1Br | 7.76 nM | 9.33 nM | 1.2 | –
COc1cc(CCNCc2ccncc2)c(OC)cc1Br | 141 nM | 155 nM | 1.1 | –
COc1cc(CCNCc2ccccc2OC)c(OC)cc1Br | – | – | – | Selectivity ratio [9]: 100
COc1cc(CCNCc2cccc3c2OCO3)c(OC)cc1Br | – | – | – | EC50 [10]: 10.5 nM; EC50 [11]: 219 nM; Selectivity ratio [12]: 18; Emax [13]: 71%; Emax [14]: 84%; Ki [15]: 0.603 nM; Ki [16]: 11.2 nM; Selectivity ratio [9]: 18.6
COc1ccc(CNCCc2cc(OC)c(Br)cc2OC)c(OC)c1 | 20 nM | 26.9 nM | 1.3 | –
COc1cc(CCNCc2cccc3ncoc23)c(OC)cc1Br | 11 nM | 32.4 nM | 2.9 | –
